We go through 29 compounds from ChEMBL document CHEMBL4321806 (J Med Chem, 2019).

The test system of data set [1] is HFF-1. The data set can be described thus: Cytotoxicity against human HFF1 cells assessed as reduction in cell viability. It is filed as cell-based.
For data set [2], the system named is NIH3T3. The data set can be described thus: Cytotoxicity against mouse 3T3 cells assessed as reduction in cell viability. It is filed as cell-based.
Data set [3] is described as follows: Cytotoxicity against mouse L929 cells assessed as reduction in cell viability.
Data set [4] deals with T1, Broad substrate specificity ATP-binding cassette transporter ABCG2 (Homo sapiens, UniProt Q9UNQ0).
T1 sequence (Q9UNQ0 whole entry): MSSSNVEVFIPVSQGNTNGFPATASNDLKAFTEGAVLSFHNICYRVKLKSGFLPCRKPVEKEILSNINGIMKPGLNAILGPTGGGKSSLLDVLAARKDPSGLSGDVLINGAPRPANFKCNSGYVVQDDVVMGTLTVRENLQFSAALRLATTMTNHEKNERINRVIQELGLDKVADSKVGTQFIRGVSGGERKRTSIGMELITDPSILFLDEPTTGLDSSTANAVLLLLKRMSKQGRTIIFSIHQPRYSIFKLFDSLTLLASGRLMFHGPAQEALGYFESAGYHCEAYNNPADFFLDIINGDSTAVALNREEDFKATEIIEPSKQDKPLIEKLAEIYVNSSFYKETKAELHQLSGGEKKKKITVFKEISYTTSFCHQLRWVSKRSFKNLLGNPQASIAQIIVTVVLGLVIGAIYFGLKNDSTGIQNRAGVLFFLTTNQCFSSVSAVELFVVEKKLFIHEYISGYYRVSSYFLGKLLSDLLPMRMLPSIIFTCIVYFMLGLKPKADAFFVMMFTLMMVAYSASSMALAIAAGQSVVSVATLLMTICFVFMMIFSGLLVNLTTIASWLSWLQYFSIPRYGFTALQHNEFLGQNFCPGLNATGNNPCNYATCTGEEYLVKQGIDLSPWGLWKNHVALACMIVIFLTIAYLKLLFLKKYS
The data set can be described thus: Inhibition of BCRP (unknown origin).

Data set [5] is described as follows: Antiproliferative activity against human LCC6 cells assessed as reduction in cell viability after 5 days by MTS/PMS assay. The note with it: LCC-6, 120 h. It is filed as functional, cell-based.
The test system of data set [6] is 2008. The data set can be described thus: Antiproliferative activity against human 2008 cells assessed as reduction in cell viability after 5 days by MTS/PMS assay. It is filed as functional, cell-based. The conditions noted are these: Homo sapiens, 2008, 120 h.
Data set [7] has as its system HEK293. The data set can be described thus: Cytotoxicity against human HEK293 cells assessed as reduction in cell viability after 5 days by MTS/PMS assay. The note with it: HEK293, 120 h. It is filed as cell-based.
Data set [8] concerns the target T1, Broad substrate specificity ATP-binding cassette transporter ABCG2. The data set can be described thus: Inhibition of BCRP (unknown origin) expressed in human HEK293/R2 cells assessed as increase in intracellular topotecan accumulation by measuring fold change at 1 uM after 120 mins in presence of topotecan by flow cytometry analysis relative to control. The note with it: 2 h. (Flow cytometry measures light scatter and fluorescence of single cells or particles in a stream.)

The species entered for data set [9] is Homo sapiens. The data set can be described thus: Effect on BCRP protein expression in human HEK293/R2 cells at 1 to 3 uM after 4 days by flow cytometric analysis. It is filed as functional, cell-based.
Data set [10] deals with T1, Broad substrate specificity ATP-binding cassette transporter ABCG2. The data set can be described thus: Inhibition of vanadate sensitive BCRP ATPase activity in human S1-M1-80 cell membranes preincubated for 30 mins followed by ATP addition and measured after 1 hr by colorimetric assay.
For data set [11], the system named is HEK293. The data set can be described thus: Effect on intracellular topotecan level in human HEK293 cells at 5 uM up to 15 mins by flow cytometric analysis. It is filed as functional, cell-based.

Calls of active or inactive are those of the source. The calls are words filed in the database; no cut-off is given here.

Regarding `COC(=O)c1cccc(COc2c(-c3ccc(OCCOCCOCCn4cc(-c5ccc(-c6cn(CCOCCOCCOc7ccc(-c8oc9ccccc9c(=O)c8OCc8cccc(C(=O)OC)c8)cc7)nn6)cc5)nn4)cc3)oc3ccccc3c2=O)c1`, the IC50 in data set [1], in data set [2] and in [3] was > 100 µM throughout.

As to `COC(=O)c1cccc(COc2c(-c3ccc(OCCOCCOCCn4cc(CN(Cc5ccccc5)Cc5cn(CCOCCOCCOc6ccc(-c7oc8ccccc8c(=O)c7OCc7cccc(C(=O)OC)c7)cc6)nn5)nn4)cc3)oc3ccccc3c2=O)c1`, the IC50 in data set [1], in [2] and in data set [3] was > 100 µM in each case.

For the compound `COc1ccc2c3c([nH]c2c1)[C@H](CC(C)C)N1C(=O)[C@H](CCC(=O)OC(C)(C)C)NC(=O)[C@@H]1C3`, the IC50 (commonly the concentration needed to halve the response being measured) in data set [1] is 56.5 µM; in [2], > 100 µM; in [3], 31.4 µM.

Consider `COC(=O)c1cccc(COc2c(-c3ccc(OCCOCCOCCn4cc(CN(Cc5cn(CCOCCOCCOc6ccc(-c7oc8ccccc8c(=O)c7OCc7cccc(C(=O)OC)c7)cc6)nn5)c5ccccc5)nn4)cc3)oc3ccccc3c2=O)c1`, for which the IC50 in data set [1], in [2] and in data set [3] was > 100 µM throughout.

For `COC(=O)c1cccc(COc2c(-c3ccc(OCCOCCn4cc(CCCc5cn(CCOCCOc6ccc(-c7oc8ccccc8c(=O)c7OCc7cccc(C(=O)OC)c7)cc6)nn5)nn4)cc3)oc3ccccc3c2=O)c1`, the IC50 in data set [1], in data set [2] and in data set [3] was > 100 µM throughout.

As to `COC(=O)c1cccc(COc2c(-c3ccc(OCCOCCn4cc(COCc5cn(CCOCCOc6ccc(-c7oc8ccccc8c(=O)c7OCc7cccc(C(=O)OC)c7)cc6)nn5)nn4)cc3)oc3ccccc3c2=O)c1`, the half-inhibitory concentration (IC50) in [1], in data set [2] and in data set [3] was > 100 µM throughout.

With `Cc1ccc2oc(-c3ccc(OCCOCCOCCn4cc(CN(Cc5ccccc5)Cc5cn(CCOCCOCCOc6ccc(-c7cc(=O)c8cc(C)ccc8o7)cc6)nn5)nn4)cc3)cc(=O)c2c1`, the half-maximal inhibitory concentration (IC50) in data set [3] was > 100 µM.

`COc1cc2c(cc1OC)CN(CCc1ccc(NC(=O)c3cc(OC)c(OC)cc3NC(=O)c3cnc4ccccc4c3)cc1)CC2`: a half-maximal effect in [4] (EC50) was put at 0.1 µM.

With `COC(=O)c1cccc(COc2c(-c3ccc(OCCOCCn4cc(CN(Cc5ccccc5)Cc5cn(CCOCCOc6ccc(-c7oc8ccccc8c(=O)c7OCc7cccc(C(=O)OC)c7)cc6)nn5)nn4)cc3)oc3ccccc3c2=O)c1`, the IC50 in data set [1], in data set [2] and in [3] was > 100 µM throughout.

For the compound `O=c1cc(-c2ccccc2)oc2cc(OCCOCCOCCn3cc(CN(CCOc4ccc5c(=O)cc(-c6ccccc6)oc5c4)Cc4ccccc4)nn3)ccc12`, in [3], the concentration for half-maximal inhibition (IC50) was > 100 µM.

Turning to `O=c1cc(-c2ccc(OCCOCCOCCn3cc(COCCOc4ccc5c(=O)cc(-c6ccccc6)oc5c4)nn3)cc2)oc2ccccc12`, the IC50 in data set [3] turned out to be 22 µM.

As to `O=c1cc(-c2ccccc2)oc2cc(OCCN(Cc3ccccc3)Cc3cn(CCOCCOCCOc4ccc(-c5oc6ccccc6c(=O)c5OCc5ccccc5)cc4)nn3)ccc12`, the IC50 in [3] is > 100 µM.

With `Cc1ccc2oc(-c3ccc(OCCCCc4cn(CCN(CCOc5ccc(-c6cc(=O)c7ccccc7o6)cc5)Cc5ccccc5)nn4)cc3)cc(=O)c2c1`, in data set [3], the IC50 is > 100 µM.

Regarding `Cc1ccc2oc(-c3ccc(OCCCCc4cn(CCOCCOCCOc5ccc(-c6oc7ccccc7c(=O)c6OCc6ccccc6)cc5)nn4)cc3)cc(=O)c2c1`, the IC50 in [3] was > 100 µM.

In the case of `O=c1cc(-c2ccccc2)oc2cc(OCCCCc3cn(CCOCCOCCOc4ccc(-c5cc(=O)c6cc(F)ccc6o5)cc4)nn3)ccc12`, the IC50 in [3] is > 100 µM.

As to `O=C1c2c(O)ccc(O)c2C(=O)c2c(NCCNCCO)ccc(NCCNCCO)c21` [MITOXANTRONE], the IC50 in data set [5] is 0.0374 µM; in data set [6], 0.0078 µM; in data set [7] it was 0.0117 µM.

For `O=c1cc(-c2ccccc2)oc2cc(OCCCc3cn(CCOCCOCCOc4ccc(-c5oc6ccccc6c(=O)c5OCc5ccccc5)cc4)nn3)ccc12`, the IC50 in [3] is > 100 µM.

On to `COC(=O)c1cccc(COc2c(-c3ccc(OCCOCCn4cc(CN(Cc5ccncc5)Cc5cn(CCOCCOc6ccc(-c7oc8ccccc8c(=O)c7OCc7cccc(C(=O)OC)c7)cc6)nn5)nn4)cc3)oc3ccccc3c2=O)c1`, for which the half-maximal inhibitory concentration (IC50) in [3] was > 50 µM.

In the case of `O=c1cc(-c2ccc(OCCOCCOCCn3cc(CCCCOc4ccc5c(=O)cc(-c6ccccc6)oc5c4)nn3)cc2)oc2ccccc12`, in [3], the IC50 was > 50 µM.

Regarding `COC(=O)c1cccc(COc2c(-c3ccc(OCCOCCn4cc(COCCOc5ccc6c(=O)cc(-c7ccccc7)oc6c5)nn4)cc3)oc3ccccc3c2=O)c1`, the IC50 in [3] was > 100 µM.

With `O=c1cc(-c2ccccc2)oc2cc(OCCCCc3cn(CCOCCOc4ccc(-c5oc6ccccc6c(=O)c5OCc5ccccc5)cc4)nn3)ccc12`, the 50% inhibitory concentration (IC50) in data set [3] was > 100 µM.

Consider `COC(=O)c1cccc(COc2c(-c3ccc(OCCOCCn4cc(-c5cccc(-c6cn(CCOCCOc7ccc(-c8oc9ccccc9c(=O)c8OCc8cccc(C(=O)OC)c8)cc7)nn6)c5)nn4)cc3)oc3ccccc3c2=O)c1`, for which the FC in data set [8] was 11 to 12. Besides, the IC50 in data set [1], in data set [2] and in [3] was > 100 µM in each case. Further, the outcome in data set [9] and in [11] was inactive. In addition, in data set [10], the “inhibition (INH)” value is “Dose-dependent effect”.

On to `Cc1ccc2oc(-c3ccc(OCCOCCOCCn4cc(CCCCOc5ccc6c(=O)cc(-c7ccccc7)oc6c5)nn4)cc3)cc(=O)c2c1`, for which, in data set [3], the IC50 is > 50 µM.

Take `COC(=O)c1cccc(COc2c(-c3ccc(OCCOCCn4cc(CN(Cc5cn(CCOCCOc6ccc(-c7oc8ccccc8c(=O)c7OCc7cccc(C(=O)OC)c7)cc6)nn5)c5ccccc5)nn4)cc3)oc3ccccc3c2=O)c1`: the IC50 in [1], in data set [2] and in data set [3] was > 100 µM in each case.

As for `Cc1ccc2oc(-c3ccc(OCCCCc4cn(CCOCCOCCOc5ccc(-c6cc(=O)c7ccccc7o6)cc5)nn4)cc3)cc(=O)c2c1`, the IC50 in [3] is > 50 µM.

Regarding `COC(=O)c1cccc(COc2c(-c3ccc(OCCOCCOCCn4cc(COCCOc5ccc6c(=O)cc(-c7ccccc7)oc6c5)nn4)cc3)oc3ccccc3c2=O)c1`, the 50% inhibitory concentration (IC50) in data set [3] is > 100 µM.

As to `COc1ccc2c3c([nH]c2c1)[C@H](C=C(C)C)N1C(=O)[C@@H]2CCCN2C(=O)[C@@H]1C3` [FUMITREMORGIN], the 50% effective concentration (EC50) (in general, the concentration giving half of the maximal effect) in data set [4] lay within 1 to 5 µM.

With `O=c1cc(-c2ccccc2)oc2cc(OCCN(Cc3ccccc3)Cc3cn(CCOc4ccc5c(=O)cc(-c6ccccc6)oc5c4)nn3)ccc12`, in data set [3], the 50% inhibitory concentration (IC50) was > 100 µM.

On to `COC(=O)c1cccc(COc2c(-c3ccc(OCCOCCOCCn4cc(-c5cccc(-c6cn(CCOCCOCCOc7ccc(-c8oc9ccccc9c(=O)c8OCc8cccc(C(=O)OC)c8)cc7)nn6)c5)nn4)cc3)oc3ccccc3c2=O)c1`, for which the half-maximal inhibitory concentration (IC50) in data set [1], in data set [2] and in data set [3] was > 100 µM throughout.
